According to patent US20240373829A1, “GENETIC RESISTANCE TO VIRAL DISEASE IN SALMONID FISH” (THE UNIVERSITY COURT OF THE UNIVERSITY OF EDINBURGH, priority 2021, published 2024):

Experiments:
SHK-1 cells = assay: MLN4924 cell viability in SHK-1 cells; format: cell-based, Atlantic salmon; settings: MLN4924 treatment compared to DMSO-treated controls
Procedure: (§1) Lyophilised MLN4924 (pevonedistat) was resuspended in DMSO. MLN4924 was titrated for cytotoxicity on CHSE-214 and SHK-1 cells. SHK-1 or CHSE-214 cells were seeded at 80% confluency and treated with 0 (DMSO only), 100 nM, 1 μM or 5 μM MLN4924 for 24 hours prior to inoculation with IPNV at an MOI of 0.01. The impact of the MLN4924 on cell viability was assessed by sampling at 24, 48, 72, and 96 hpi and comparing cell survival in all challenged groups (including the DMSO control) versus the unchallenged control at the same timepoint.

RTG-2 cells = assay: MLN4924 cytotoxicity test (cell viability assay) in RTG-2 cells; format: cell-based, rainbow trout (Oncorhynchus mykiss); settings: wild type RTG-2 cells; 0.1, 1 and 5 uM; 24, 48, 72 and 96 hours post treatment
Procedure: Initially, four different concentrations of MLN4924 0 (DMSO-only), 0.1, 1 and 5 uM, were tested in fresh RTG-2 cells to investigate if they exerted toxicity in wild type RTG-2 cells. A cell viability assay was used to assess any present cytopathic effect at four different time points: 24, 48, 72 and 96 hours post treatment with the four different concentrations of the inhibitor.

DNA and RNA viruses = settings: in vitro, multitude of DNA and RNA viruses (ref 15); cited from earlier work
IPNV viral proteins = assay: Western blot of IPNV viral proteins from MLN4924-treated SHK-1 cells; format: cell-based, infectious pancreatic necrosis virus; settings: SHK-1 cells treated with MLN4924 or DMSO, 120 h, MOI 0.01
Procedure: To evaluate the infectivity of viral output, cells and supernatant were harvested at 120 hpi and assessed by TCID50 on naïve CHSE-214 cells. For semi-quantification of viral protein output, western blot against viral proteins was performed. At 120 hpi, supernatant from a 150 mm dishes containing SHK-1 cells treated with either 100 nM MLN4924 or DMSO for 24 hours before infection with IPNV at an MOI of 0.01 was collected, sterile filtered, and ultra-centrifuged at 22000 x g for 1 hour. The ultra-centrifuged virus pellet from the supernatant was resuspended in Laemmli buffer. The cell-associated virus was also analysed by harvesting cells in Laemmli buffer. These samples were separated by PAGE (4-15% Mini-Protean, BIORAD), transferred onto nitrocellulose membrane, and the viral protein was visualised using a monoclonal antibody that recognises all IPN viral proteins, and secondary LICOR antibodies.

IPNV [1] = assay: IPNV viral load (VP2 qRT-PCR) in MLN4924-treated SHK-1 cells; format: cell-based, infectious pancreatic necrosis virus; settings: 100 nM MLN4924 24 hours prior to infection, during the course of infection, vs DMSO only
Procedure: To evaluate the viral load in cells, relative transcript level of IPNV VP2 to ef1a in the total RNAs was analysed by qRT-PCR using Luna Universal One-Step RT-qPCR reagent (NEB, Ipswich, USA) and LightCycler 480 Instrument (Roche, Basel, Switzerland) in duplicates. Each reaction consisted of 0.5 μL RNAs, 1× Reaction Mix, 1× Enzyme Mix, 0.4 μM each primer (Supplementary Table 4) and nuclease-free water up to 10 μL. The thermocycling initiated with reverse transcription at 55° C. for 10 min and initial denaturation at 95° C. for 1 min, followed by 40 cycles of denaturation at 95° C. for 10 sec and extension at 60° C. for 30 sec with plate read, and melt curve analysis. Efficiency and linearity (R^2) of each primer pair were checked using serial dilution of total RNAs in duplicates. The relative viral transcript level of IPNV VP2 versus ef1a in the KO SHK-1 cells compared to wild type SHK-1 cells at each timepoint was calculated using 2^−ΔΔCT.
as §1, with “SHK-1 or CHSE-214 cells were seeded at 80% confluency and treated with 0 (DMSO only), 100 nM, 1 μM or 5 μM MLN4924 for 24 hours prior to inoculation with IPNV at an MOI of 0.01.” left out

IPNV [2] = assay: Supernatant infectivity assay (TCID50) of MLN4924 and IPNV-treated RTG-2 cells; format: cell-based, infectious pancreatic necrosis virus
Procedure: Wild type RTG-2 cells were seeded in 4× quadruplicates in 24-well plates and were allowed to settle for 24 hours. The four quadruplicates were then treated with DMSO-only, 0.1, 1 and 5 uM of MLN4924, respectively. 24 hours after the MLN4924 treatment, the inhibitor inoculum was removed and IPNV in a dose of 10-5 TCID50/mL was inoculated in the cells, along with the four doses of MLN4924. Supernatants were collected at 48 and 72 hpi, and were stored at −80° C. until use.
TCID50 (Median Tissue Culture Infectious Dose) assay was used to assess the titer of the viral supernatants, harvested from the MLN4924 and IPNV-treated cells at 72 hpi. Firstly, 20,000 cells/well were seeded in wells of a 96-well plate (in four rows of 10 wells for each supernatant, for 4 replicates) and were allowed to settle and grow overnight. The following day, the media was removed with a multichannel pipette and replaced with serial 10-fold dilutions (starting from the neat original viral supernatants up to 10^−7 dilution). The latter were prepared in 2% FBS media (with penicillin streptomycin). The seeded cells were inoculated with these serial dilutions (four replicates per virus dilution, 100 uL/96-well). The last two wells of each row were used as controls, meaning that no virus was added there, only media. The 96-well plate was incubated at 15° C. for the duration of the experiment. The Cytopathic Effect (CPE) of the viral infection was assessed using CellTiter-Glo® Luminescent Cell Viability Assay (Promega, Madison, USA), at 30 hpi. The 50% endpoint titer was further calculated using the Reed and Muench method^16.
MLN4924 inhibitor was used to inhibit nae1 activity. Four supernatants of each dose group collected from the MLN4924 and IPNV-treated cells at 72 hpi were tested in two independent TCID50 infectivity assays followed by a cell viability assay at 30 hpi and use of the Reed and Muench method to analyze the cytopathic effect present in the wells.

## NS(=O)(=O)OC[C@@H]1C[C@@H](n2ccc3c(N[C@H]4CCc5ccccc54)ncnc32)C[C@@H]1O [MLN4924]
SHK-1 cells
  cell viability: no associated decrease in cell viability
RTG-2 cells
  cytotoxicity (cell viability assay): none of the doses were cytotoxic
DNA and RNA viruses
  anti-viral activity: broad-acting anti-viral activity
IPNV viral proteins
  abundance of IPNV viral proteins (western blot): notable decrease
IPNV [1]
  IPNV RNA copy number: little difference
IPNV [2]; 0.1 μM MLN4924, 72 hpi supernatants
  productive IPNV viral output (TCID50): effect similar to the DMSO-only cell group
IPNV [2]; 1 μM MLN4924, 72 hpi supernatants, vs DMSO-only
  productive IPNV viral output (TCID50): marked drop
IPNV [2]; 5 μM MLN4924, 72 hpi supernatants, vs DMSO-only
  productive IPNV viral output (TCID50): marked drop
